# Patent publication US20180303940A1, “LIPOSOME PRODUCTION USING ISOPROPANOL” (GLAXOSMITHKLINE BIOLOGICALS, S.A., priority 2011, published 2018)
# Experiment: Cholesterol solubility in solvents at saturation (dry residue weighed)
# Assay type: physicochemical
# Conditions: 50° C.
# Protocol: 3 solvent compared: Ethanol , Isopropanol, Heptane
# Cholesterol was progressively added to each solvent at 50° C. up to saturation of the solution
# Once saturation is achieved, a sample of the solution is taken and the solvent is evaporated with a rotary evaporator and/or in an oven. Dry residue of cholesterol is weighed to determine the solubility value
structure (smiles),measurement,setting,value
"CC(C)CCC[C@@H](C)[C@H]1CC[C@H]2[C@@H]3CC=C4C[C@@H](O)CC[C@]4(C)[C@H]3CC[C@]12C [cholesterol, (3β)-cholest-5-en-3-ol]",cholesterol solubility in ethanol,ethanol,6.7%
same,cholesterol solubility in heptane,heptane,4.3%
same,cholesterol solubility in isopropanol,isopropanol,12.1%
